According to patent US4216314A, “N-Aryloxypropyl-N'-dioxopyrimidyl-α,ω-alkylenediamines” (Cassella Farbwerke Mainkur Aktiengesellschaft, priority 1977, dated 1980):

What was measured:
[1] = target: T1, β1 -receptors of the heart (Canis lupus familiaris, UniProt P79148); experiment: inhibition of isoproterenol effect on dp/dtmax of left ventricle (β1-receptors of the heart) in anaesthetised dogs; type: in vivo, mongrel dogs; conditions: for ED50: dog, cumulative intravenous dose for 50% inhibition of effect of isoproterenol (0.5 gamma/kg i.v.) on dp/dtmax, chloralose/urethane/morphine anaesthesia, read-out: ED50 β1 mg/kg intravenously; for ratio of the doses, ED50 β2 / ED50 β1 (head is drawing 43): number significantly >1 indicates cardioselective action
T1 construct: from tissue; host or cells: heart (left ventricle) of anaesthetised mongrel dogs, in vivo
T1 sequence (P79148 whole entry): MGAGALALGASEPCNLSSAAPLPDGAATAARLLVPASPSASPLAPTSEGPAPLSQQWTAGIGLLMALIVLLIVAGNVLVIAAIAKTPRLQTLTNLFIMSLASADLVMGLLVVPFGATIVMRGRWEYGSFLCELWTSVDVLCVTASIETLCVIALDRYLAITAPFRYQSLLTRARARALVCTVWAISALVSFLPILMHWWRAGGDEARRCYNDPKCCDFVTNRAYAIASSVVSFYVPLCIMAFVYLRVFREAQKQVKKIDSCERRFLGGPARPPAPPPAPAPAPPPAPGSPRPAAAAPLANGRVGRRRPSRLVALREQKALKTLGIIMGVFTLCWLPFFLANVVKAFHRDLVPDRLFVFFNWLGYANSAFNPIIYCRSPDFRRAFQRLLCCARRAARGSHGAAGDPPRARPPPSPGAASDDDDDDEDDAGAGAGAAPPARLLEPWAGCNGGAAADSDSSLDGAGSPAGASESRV
Experimental: (§1) Pharmacological tests for activity towards β1 -receptors and β2 -receptors were carried out on mongrel dogs of both sexes under chloralose/urethane/morphine anaesthesia. The pressure in the left ventricle was recorded by means of a catheter tip manometer (micro-tip pressure transducer, MILLAR Instruments, Houston, Texas). The pressure signal was continuously differentiated by means of an analog computer and recorded (BRUSH Instruments, Cleveland, Ohio). The flow of blood through an arteria femoralis was measured and recorded by means of an electromagnetic flow meter (Messrs. STATHAM, Model M4000). Injection catheters were fastened to a peripheral vein and into a branch of the a. femoralis.
(§2) Isoproterenol was injected intravenously (0.5 gamma/kg) and intraarterially (0.05 gamma/kg). The effect of the isoproterenol on the dp/dtmax in the case of intravenous administration was considered to be an expression of the stimulation of the β1 -receptors of the heart. The change in the flow of blood through the arteria femoralis in the case of intraarterial injection of isoproterenol was considered to be an expression of the stimulation of the peripheral β2 -receptors (D-DUNLOP and R. G. SHANKS, "Selective Blockade of Adrenoceptive beta-Receptors in the Heart", Br. J. Pharmac. Chemother., 32, 201 to 218, 1968). The percentage inhibition of the effects of isoproterenol with respect to the cumulative doses of the test substance was determined. The cumulative doses of the test substance which leads to 50% inhibition of the isoproterenol effects (=ED50) was determined by means of a modified probit analysis. Substances which inhibit the isoproterenol effects on the dp/dtmax (β1) at a low dose and only decrease the change in the flow of blood through the a. femoralis at higher doses (β2) preferentially act on the β1 -receptors of the heart. The ratio of the doses. [formula] should be as high as possible.

peripheral β2 -receptors = target: T2, peripheral β2 -receptors (Canis lupus familiaris, UniProt P54833); experiment: inhibition of isoproterenol effect on blood flow through arteria femoralis (peripheral β2-receptors) in anaesthetised dogs; type: in vivo, mongrel dogs; conditions: dog; cumulative intravenous dose for 50% inhibition of effect of isoproterenol (0.05 gamma/kg intraarterially) on blood flow through a. femoralis; chloralose/urethane/morphine anaesthesia; read-out: ED50 β2 mg/kg intraveneously
T2 construct: from tissue; host or cells: femoral arterial bed of anaesthetised mongrel dogs, in vivo
T2 sequence (P54833 whole entry): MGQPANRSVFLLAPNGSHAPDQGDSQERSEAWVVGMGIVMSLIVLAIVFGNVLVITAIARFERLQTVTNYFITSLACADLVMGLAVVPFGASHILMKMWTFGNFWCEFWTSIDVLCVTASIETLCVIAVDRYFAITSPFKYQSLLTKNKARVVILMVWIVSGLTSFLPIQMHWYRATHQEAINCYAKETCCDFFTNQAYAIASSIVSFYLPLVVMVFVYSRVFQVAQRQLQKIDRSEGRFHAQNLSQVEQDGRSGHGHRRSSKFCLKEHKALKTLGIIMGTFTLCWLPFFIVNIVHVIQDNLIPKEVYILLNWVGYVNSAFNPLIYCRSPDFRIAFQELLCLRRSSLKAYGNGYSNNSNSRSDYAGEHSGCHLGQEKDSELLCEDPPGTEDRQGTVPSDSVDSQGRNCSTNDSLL
Experimental: as §1, §2

Row | SMILES | ED50 [1] [mg/kg] | ratio of the doses, ED50 β2 / ED50 β1 (head is drawing 43) [1] | ED50 (peripheral β2 -receptors) [mg/kg]
1 | COc1ccc(OCC(O)CNCCNc2cc(=O)n(C)c(=O)n2C)cc1 (stereo not drawn) [Example 11] | 0.0157 | 341 | 5.36
2 | CCCOc1ccc(OCC(O)CNCCNc2cc(=O)n(C)c(=O)n2C)cc1 (stereo not drawn) [Example 12] | 0.0061 | > 1,000 | > 7.3
3 | CCCCOc1ccc(OCC(O)CNCCNc2cc(=O)n(C)c(=O)n2C)cc1 (stereo not drawn) [Example 13] | 0.0096 | > 1,000 | > 9.6
4 | Cn1c(NCCNCC(O)COc2ccc(OCCO)cc2)cc(=O)n(C)c1=O (stereo not drawn) [Example 14] | 0.0291 | 303 | 8.83
5 | Cn1c(NCCNCC(O)COc2ccc(OCc3ccccc3)cc2)cc(=O)n(C)c1=O (stereo not drawn) [Example 19] | 0.0139 | 322 | 4.48
